Results from patent US20070049564A1 (Wyeth, priority 2005, published 2007).
Values after ≈ are worked out from the molar mass of the structure shown. Where two headings read alike, the source gives them in different places.

Legend:
E. coli GC 2231 = assay: MIC, broth microdilution; conditions: Escherichia coli
E. coli GC 2232 = assay: MIC, broth microdilution; conditions: Escherichia coli
E. coli GC 2234 = assay: MIC, broth microdilution; conditions: Escherichia coli
E. coli GC 2272 = assay: MIC, broth microdilution; conditions: Escherichia coli
E. coli GC 3226 = assay: MIC, broth microdilution; conditions: Escherichia coli
S. typhimurium GC 2172 = assay: MIC, broth microdilution; conditions: Salmonella enterica, TYPHIMURIUM
Protocol: (§1) Antimicrobial susceptibility testing. The in vitro activities of the antibiotics are determined by the broth microdilution method as recommended by the National Committee for Clinical Laboratory Standards (NCCLS) (1). Mueller-Hinton II broth (MHBII)(BBL Cockeysville, Md.) is the medium employed in the testing procedures. Microtiter plates containing serial dilutions of each antimicrobial agent are inoculated with each organism to yield the appropriate density (10^5 CFU/ml) in a 100 μl final volume. The plates are incubated for 18-22 hours at 35° C. in ambient air.
(§2) Representative compounds were first incubated in mouse serum for an hour prior to the in vitro testing against a panel of selected gram-positive and gram-negative bacteria strains. All compounds were also pre-incubated in water for an hour prior to testing as control.

S. aureus GC 1131 = assay: MIC, broth microdilution; conditions: Staphylococcus aureus
Protocol: as §1, §2

S. aureus GC 6466 = assay: MIC, broth microdilution; conditions: Staphylococcus aureus
S. aureus GC 1079 = assay: MIC, broth microdilution; conditions: Staphylococcus aureus
S. aureus GC 2216 = assay: MIC, broth microdilution; conditions: Staphylococcus aureus
S. aureus GC 6335 = assay: MIC, broth microdilution; conditions: Staphylococcus aureus
S. epidermidis GC 4935 = assay: MIC, broth microdilution; conditions: Staphylococcus epidermidis
E. faecalis GC 2267 = assay: MIC, broth microdilution; conditions: Enterococcus faecalis
E. faecium GC 4556 = assay: MIC, broth microdilution; conditions: Enterococcus faecium
E. faecium GC 2243 = assay: MIC, broth microdilution; conditions: Enterococcus faecium
S. pneumoniae* GC 4465 = assay: MIC, broth microdilution; conditions: Streptococcus pneumoniae
S. pneumoniae+ GC 4465 = assay: MIC, broth microdilution; conditions: Streptococcus pneumoniae
S. pyogenes GC 4563 = assay: MIC, broth microdilution; conditions: Streptococcus pyogenes
c. albicans GC 3066 = assay: MIC, broth microdilution
Staph. aureus Smith = assay: In vivo activity (oral, iv; ED50) against Staph. aureus Smith in mice
Protocol: Representative examples of compounds of Formula I were tested for the oral efficacy using S. aureus Smith in mice.

[1] = read-out: MINIMAL INHIBITORY CONCENTRATION MIC, pre-incubated in Human Serum
[2] = read-out: MINIMAL INHIBITORY CONCENTRATION MIC, pre-incubated in Mouse Serum
[3] = read-out: MINIMAL INHIBITORY CONCENTRATION MIC, pre-incubated in Water

Structure (SMILES): CCC(C)(C)C(=O)OCOC(=O)N(CC(=O)Nc1cc(N(C)C)c2c(c1O)C(=O)C1=C(O)[C@]3(O)C(=O)C(C(N)=O)=C(O)[C@@H](N(C)C)[C@@H]3C[C@@H]1C2)C(C)(C)C [Example 44, ({[(2-{[(5aR,6aS,7S,10aS)-9-(aminocarbonyl)-4,7-bis(dimethylamino)-1,8,10a,11-tetrahydroxy-10,12-dioxo-5,5a,6,6a,7,10,10a,12-octahydrotetracen-2-yl]amino}-2-oxoethyl)(tert-butyl)amino]carbonyl}oxy)methyl 2,2-dimethylbutanoate]
- MIC (E. coli GC 2231; GC2231, read-out: MINIMAL INHIBITORY CONCENTRATION MIC, pre-incubated in Human Serum): > 64 µg/mL
- MIC (E. coli GC 2231; GC2231, read-out: MINIMAL INHIBITORY CONCENTRATION MIC, pre-incubated in Mouse Serum): 2 µg/mL (≈ 2.64 µM)
- MIC (E. coli GC 2231; GC2231, read-out: MINIMAL INHIBITORY CONCENTRATION MIC, pre-incubated in Water): > 64 µg/mL
- MIC (E. coli GC 2232; GC2232, read-out: MINIMAL INHIBITORY CONCENTRATION MIC, pre-incubated in Human Serum): > 64 µg/mL
- MIC (E. coli GC 2232; GC2232, read-out: MINIMAL INHIBITORY CONCENTRATION MIC, pre-incubated in Mouse Serum): 2 µg/mL (≈ 2.64 µM)
- MIC (E. coli GC 2232; GC2232, read-out: MINIMAL INHIBITORY CONCENTRATION MIC, pre-incubated in Water): > 64 µg/mL
- MIC (E. coli GC 2234; GC2234, read-out: MINIMAL INHIBITORY CONCENTRATION MIC, pre-incubated in Human Serum): > 64 µg/mL
- MIC (E. coli GC 2234; GC2234, read-out: MINIMAL INHIBITORY CONCENTRATION MIC, pre-incubated in Mouse Serum): 2 µg/mL (≈ 2.64 µM)
- MIC (E. coli GC 2234; GC2234, read-out: MINIMAL INHIBITORY CONCENTRATION MIC, pre-incubated in Water): > 64 µg/mL
- MIC (E. coli GC 2272; GC2272, read-out: MINIMAL INHIBITORY CONCENTRATION MIC, pre-incubated in Human Serum): > 64 µg/mL
- MIC (E. coli GC 2272; GC2272, read-out: MINIMAL INHIBITORY CONCENTRATION MIC, pre-incubated in Mouse Serum): 2 µg/mL (≈ 2.64 µM)
- MIC (E. coli GC 2272; GC2272, read-out: MINIMAL INHIBITORY CONCENTRATION MIC, pre-incubated in Water): > 64 µg/mL
- MIC (E. coli GC 3226; GC3226, read-out: MINIMAL INHIBITORY CONCENTRATION MIC, pre-incubated in Human Serum): > 64 µg/mL
- MIC (E. coli GC 3226; GC3226, read-out: MINIMAL INHIBITORY CONCENTRATION MIC, pre-incubated in Mouse Serum): 4 µg/mL (≈ 5.28 µM)
- MIC (E. coli GC 3226; GC3226, read-out: MINIMAL INHIBITORY CONCENTRATION MIC, pre-incubated in Water): > 64 µg/mL
- MIC (S. typhimurium GC 2172; [1]): > 64 µg/mL
- MIC (S. typhimurium GC 2172; [2]): 8 µg/mL (≈ 10.6 µM)
- MIC (S. typhimurium GC 2172; [3]): > 64 µg/mL
- MIC (S. aureus GC 1131; GC1131, read-out: MINIMAL INHIBITORY CONCENTRATION MIC, pre-incubated in Human Serum): 2 µg/mL (≈ 2.64 µM)
- MIC (S. aureus GC 1131; GC1131, read-out: MINIMAL INHIBITORY CONCENTRATION MIC, pre-incubated in Mouse Serum): 2 µg/mL (≈ 2.64 µM)
- MIC (S. aureus GC 1131; GC1131, read-out: MINIMAL INHIBITORY CONCENTRATION MIC, pre-incubated in Water): 4 µg/mL (≈ 5.28 µM)
- MIC (S. aureus GC 6466; GC6466, read-out: MINIMAL INHIBITORY CONCENTRATION MIC, pre-incubated in Human Serum): 2 µg/mL (≈ 2.64 µM)
- MIC (S. aureus GC 6466; GC6466, read-out: MINIMAL INHIBITORY CONCENTRATION MIC, pre-incubated in Mouse Serum): 2 µg/mL (≈ 2.64 µM)
- MIC (S. aureus GC 6466; GC6466, read-out: MINIMAL INHIBITORY CONCENTRATION MIC, pre-incubated in Water): 2 µg/mL (≈ 2.64 µM)
- MIC (S. aureus GC 1079; GC1079, read-out: MINIMAL INHIBITORY CONCENTRATION MIC, pre-incubated in Human Serum): 2 µg/mL (≈ 2.64 µM)
- MIC (S. aureus GC 1079; GC1079, read-out: MINIMAL INHIBITORY CONCENTRATION MIC, pre-incubated in Mouse Serum): 2 µg/mL (≈ 2.64 µM)
- MIC (S. aureus GC 1079; GC1079, read-out: MINIMAL INHIBITORY CONCENTRATION MIC, pre-incubated in Water): 4 µg/mL (≈ 5.28 µM)
- MIC (S. aureus GC 2216; GC2216, read-out: MINIMAL INHIBITORY CONCENTRATION MIC, pre-incubated in Human Serum): 2 µg/mL (≈ 2.64 µM)
- MIC (S. aureus GC 2216; GC2216, read-out: MINIMAL INHIBITORY CONCENTRATION MIC, pre-incubated in Mouse Serum): 2 µg/mL (≈ 2.64 µM)
- MIC (S. aureus GC 2216; GC2216, read-out: MINIMAL INHIBITORY CONCENTRATION MIC, pre-incubated in Water): 2 µg/mL (≈ 2.64 µM)
- MIC (S. aureus GC 6335; GC6335, read-out: MINIMAL INHIBITORY CONCENTRATION MIC, pre-incubated in Human Serum): 4 µg/mL (≈ 5.28 µM)
- MIC (S. aureus GC 6335; GC6335, read-out: MINIMAL INHIBITORY CONCENTRATION MIC, pre-incubated in Mouse Serum): 2 µg/mL (≈ 2.64 µM)
- MIC (S. aureus GC 6335; GC6335, read-out: MINIMAL INHIBITORY CONCENTRATION MIC, pre-incubated in Water): 4 µg/mL (≈ 5.28 µM)
- MIC (S. epidermidis GC 4935; GC4935, read-out: MINIMAL INHIBITORY CONCENTRATION MIC, pre-incubated in Human Serum): 4 µg/mL (≈ 5.28 µM)
- MIC (S. epidermidis GC 4935; GC4935, read-out: MINIMAL INHIBITORY CONCENTRATION MIC, pre-incubated in Mouse Serum): 2 µg/mL (≈ 2.64 µM)
- MIC (S. epidermidis GC 4935; GC4935, read-out: MINIMAL INHIBITORY CONCENTRATION MIC, pre-incubated in Water): 4 µg/mL (≈ 5.28 µM)
- MIC (E. faecalis GC 2267; GC2267, read-out: MINIMAL INHIBITORY CONCENTRATION MIC, pre-incubated in Human Serum): 4 µg/mL (≈ 5.28 µM)
- MIC (E. faecalis GC 2267; GC2267, read-out: MINIMAL INHIBITORY CONCENTRATION MIC, pre-incubated in Mouse Serum): 2 µg/mL (≈ 2.64 µM)
- MIC (E. faecalis GC 2267; GC2267, read-out: MINIMAL INHIBITORY CONCENTRATION MIC, pre-incubated in Water): 4 µg/mL (≈ 5.28 µM)
- MIC (E. faecium GC 4556; GC4556, read-out: MINIMAL INHIBITORY CONCENTRATION MIC, pre-incubated in Human Serum): 4 µg/mL (≈ 5.28 µM)
- MIC (E. faecium GC 4556; GC4556, read-out: MINIMAL INHIBITORY CONCENTRATION MIC, pre-incubated in Mouse Serum): 2 µg/mL (≈ 2.64 µM)
- MIC (E. faecium GC 4556; GC4556, read-out: MINIMAL INHIBITORY CONCENTRATION MIC, pre-incubated in Water): 4 µg/mL (≈ 5.28 µM)
- MIC (E. faecium GC 2243; GC2243, read-out: MINIMAL INHIBITORY CONCENTRATION MIC, pre-incubated in Human Serum): 4 µg/mL (≈ 5.28 µM)
- MIC (E. faecium GC 2243; GC2243, read-out: MINIMAL INHIBITORY CONCENTRATION MIC, pre-incubated in Mouse Serum): 2 µg/mL (≈ 2.64 µM)
- MIC (E. faecium GC 2243; GC2243, read-out: MINIMAL INHIBITORY CONCENTRATION MIC, pre-incubated in Water): 4 µg/mL (≈ 5.28 µM)
- MIC (S. pneumoniae* GC 4465; [1]): 2 µg/mL (≈ 2.64 µM)
- MIC (S. pneumoniae* GC 4465; [2]): 1 µg/mL (≈ 1.32 µM)
- MIC (S. pneumoniae* GC 4465; [3]): 2 µg/mL (≈ 2.64 µM)
- MIC (S. pneumoniae+ GC 4465; [1]): 4 µg/mL (≈ 5.28 µM)
- MIC (S. pneumoniae+ GC 4465; [2]): 4 µg/mL (≈ 5.28 µM)
- MIC (S. pneumoniae+ GC 4465; [3]): 4 µg/mL (≈ 5.28 µM)
- MIC (S. pyogenes GC 4563; GC4563, read-out: MINIMAL INHIBITORY CONCENTRATION MIC, pre-incubated in Human Serum): 4 µg/mL (≈ 5.28 µM)
- MIC (S. pyogenes GC 4563; GC4563, read-out: MINIMAL INHIBITORY CONCENTRATION MIC, pre-incubated in Mouse Serum): 1 µg/mL (≈ 1.32 µM)
- MIC (S. pyogenes GC 4563; GC4563, read-out: MINIMAL INHIBITORY CONCENTRATION MIC, pre-incubated in Water): 2 µg/mL (≈ 2.64 µM)
- MIC (c. albicans GC 3066; Candida albicans, GC3066, read-out: MINIMAL INHIBITORY CONCENTRATION MIC): > 64 µg/mL
- MINIMAL INHIBITORY CONCENTRATION MIC (c. albicans GC 3066; pre-incubated in Human Serum): >64 UG/ML
- MINIMAL INHIBITORY CONCENTRATION MIC (c. albicans GC 3066; pre-incubated in Mouse Serum): >64 UG/ML
- ED50 (Staph. aureus Smith; Staphylococcus aureus, in Mus musculus, iv, read-out: ED50 SIV (Staph aureus Smith)): 0.75 mg/kg
- ED50 (Staph. aureus Smith; Staphylococcus aureus, in Mus musculus, po, read-out: ED50 SOD (Staph aureus Smith)): 4 mg/kg
- ED50 (Staph. aureus Smith; Staphylococcus aureus, in Mus musculus, po, read-out: ED50 Staph Smith SOD): 4 mg/kg
- ED50 (Staph. aureus Smith; iv, read-out: ED50 Staph Smith SIV): 0.75 mg/kg
